Experimental data taken from the Kinase Knowledgebase extract (Sharma et al. 2016).

Each compound was assayed against PIK3CA (human) (UniProt P42336) (assay: Assessment of PIK3CA Kinase Activity).
PIK3CA (human), sequence (P42336 whole entry, looked up): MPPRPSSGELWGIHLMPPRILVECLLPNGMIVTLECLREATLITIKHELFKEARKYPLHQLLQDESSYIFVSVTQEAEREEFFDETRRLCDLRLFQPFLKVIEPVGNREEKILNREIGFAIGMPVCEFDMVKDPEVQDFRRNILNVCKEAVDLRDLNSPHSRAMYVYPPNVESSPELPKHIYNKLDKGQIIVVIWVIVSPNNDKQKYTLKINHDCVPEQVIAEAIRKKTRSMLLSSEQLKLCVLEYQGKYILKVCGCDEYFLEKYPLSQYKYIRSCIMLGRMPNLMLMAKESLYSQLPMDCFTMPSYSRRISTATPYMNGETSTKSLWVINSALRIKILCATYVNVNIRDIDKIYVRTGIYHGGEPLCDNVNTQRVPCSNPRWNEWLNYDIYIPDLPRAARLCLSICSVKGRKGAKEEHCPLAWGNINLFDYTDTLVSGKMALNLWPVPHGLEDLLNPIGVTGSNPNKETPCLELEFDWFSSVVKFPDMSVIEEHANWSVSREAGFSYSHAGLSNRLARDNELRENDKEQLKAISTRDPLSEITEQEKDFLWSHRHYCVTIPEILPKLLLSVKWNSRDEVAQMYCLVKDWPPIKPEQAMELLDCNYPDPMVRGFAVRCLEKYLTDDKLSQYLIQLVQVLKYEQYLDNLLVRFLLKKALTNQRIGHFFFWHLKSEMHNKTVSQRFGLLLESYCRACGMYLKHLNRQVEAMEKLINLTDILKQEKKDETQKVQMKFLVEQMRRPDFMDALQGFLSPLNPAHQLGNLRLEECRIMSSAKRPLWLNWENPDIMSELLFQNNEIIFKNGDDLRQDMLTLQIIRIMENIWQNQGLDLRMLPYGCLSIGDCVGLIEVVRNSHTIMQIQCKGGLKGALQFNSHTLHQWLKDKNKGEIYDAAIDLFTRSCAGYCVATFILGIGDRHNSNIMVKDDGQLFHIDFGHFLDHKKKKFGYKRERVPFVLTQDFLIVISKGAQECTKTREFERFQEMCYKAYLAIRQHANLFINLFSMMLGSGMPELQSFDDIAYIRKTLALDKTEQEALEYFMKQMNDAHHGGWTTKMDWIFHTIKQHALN

**Q.** Which IC50 does the source give for `NC(=O)Cn1cc(-c2ccc3c(c2)OCCc2sc(-c4ncnn4CC(F)(F)F)nc2-3)cn1` here?
**A.** The IC50 was less than 1000 nM.

**Q.** Which IC50 does the source give for `CC(C)n1ncnc1-c1nc2c(s1)CCOc1ccc(-c3ccc(N4CCOCC4)nc3)cc1-2` here?
**A.** Its IC50 is less than 1000 nM.

**Q.** With `Fc1ccc(-n2ncnc2-c2cc3c(s2)-c2nc(N4CC5CC4CN5)ccc2OCC3)c(F)c1` (stereo unspecified) as the compound, how does the IC50 read?
**A.** The IC50 was less than 1000 nM.

**Q.** `Fc1ccc(-n2ncnc2-c2cc3c(s2)-c2nc(NCCN4CCOCC4)ccc2OCC3)c(F)c1` was tested. Which IC50 did it give?
**A.** The IC50 was less than 1000 nM.

**Q.** Which IC50 does the source give for `CC1(C)C(=O)N(CCN)C(=O)N1c1nc2c(s1)CCOc1ccccc1-2` here?
**A.** The IC50 was less than 1000 nM.

**Q.** For `CC(C)(O)Cn1cc(-c2ccc3c(c2)OCCc2sc(C(=O)N(CCO)C4CCOCC4)nc2-3)cn1`, which IC50 is on record?
**A.** Its IC50 is less than 1000 nM.

**Q.** For `Cc1nc(-c2nc3c(s2)CCOc2cc(C4CN(CCF)C4)ccc2-3)n(C(C)C)n1`, which IC50 is on record?
**A.** Its IC50 is less than 1000 nM.

**Q.** How did the IC50 turn out when `C[C@H](O)Cn1cc(-c2ccc3c(c2)OCCc2sc(-c4ncnn4CC(F)(F)F)nc2-3)cn1` was run?
**A.** Its IC50 is less than 1000 nM.

**Q.** Which IC50 does the source give for `CCNC(=O)NCc1ccc2c(c1)OCCc1sc(-c3nc(C)nn3C(C)C)nc1-2` here?
**A.** The IC50 was less than 1000 nM.

**Q.** For `CN(C)S(=O)(=O)N1CCN(C(=O)c2nc3c(s2)CCOc2cc(-c4cn[nH]c4)ccc2-3)CC1`, which IC50 is on record?
**A.** The IC50 was less than 1000 nM.

**Q.** With `CC(C)n1c(-c2nc3c(s2)CCOc2cc(-c4cnn(CC5(C)COC5)c4)ccc2-3)n[nH]c1=O` as the compound, how does the IC50 read?
**A.** Its IC50 is less than 1000 nM.

**Q.** `CC(C)NC(=O)CN1CC(c2ccc3c(c2)OCCc2sc(-c4ncnn4C(C)C)nc2-3)C1` was tested. Which IC50 did it give?
**A.** Its IC50 is less than 1000 nM.

**Q.** How did the IC50 turn out when `O=C(NCC(F)F)c1ccc2c(c1)OCCc1sc(-c3ncnn3CC(F)(F)F)nc1-2` was run?
**A.** The IC50 was less than 1000 nM.

**Q.** With `CC(C)n1ncnc1-c1nc2c(s1)CCOc1cc(C3CN(S(=O)(=O)CCN(C)C)C3)ccc1-2` as the compound, how does the IC50 read?
**A.** The IC50 was less than 1000 nM.

**Q.** For `CC(C)n1ncnc1-c1nc2c(s1)CCOc1ccc(-c3cccn(C)c3=O)cc1-2`, which IC50 is on record?
**A.** The IC50 was less than 1000 nM.

**Q.** How did the IC50 turn out when `CC(=O)NCCNc1ccc2c(n1)-c1sc(-c3ncnn3-c3ccc(F)cc3F)cc1CCO2` was run?
**A.** Its IC50 is less than 1000 nM.

**Q.** Which IC50 does the source give for `CN(CCc1ccccc1)C(=O)c1nc2c(s1)CCOc1cc(-c3cn[nH]c3)ccc1-2` here?
**A.** Its IC50 is less than 1000 nM.

**Q.** How did the IC50 turn out when `CC(C)n1ncnc1-c1nc2c(s1)CCOc1cc(-c3cccc(CC(N)=O)c3)ccc1-2` was run?
**A.** The IC50 was less than 1000 nM.

**Q.** `CN1CCN(CCNc2ccc3c(n2)-c2sc(-c4ncnn4-c4ccc(F)cc4F)cc2CCO3)CC1` was tested. Which IC50 did it give?
**A.** The IC50 was less than 1000 nM.

**Q.** How did the IC50 turn out when `CC(C)n1ncnc1-c1nc2c(s1)CCOc1cc(-c3cccnc3F)ccc1-2` was run?
**A.** The IC50 was less than 1000 nM.

**Q.** How did the IC50 turn out when `CC(C)n1ncnc1-c1nc2c(s1)CCOc1cc(C3CN(CCS(=O)(=O)N4CC(F)(F)C4)C3)ccc1-2` was run?
**A.** Its IC50 is less than 1000 nM.

**Q.** How did the IC50 turn out when `Cc1nc(-c2nc3c(s2)CCOc2cc(-c4ccccc4S(N)(=O)=O)ccc2-3)n(C(C)C)n1` was run?
**A.** The IC50 was less than 1000 nM.

**Q.** `C[C@@H]1CN(c2ccc3c(n2)-c2sc(-c4ncnn4-c4ccc(F)cc4F)cc2CCO3)C[C@H](C)N1CC(F)(F)F` was tested. Which IC50 did it give?
**A.** The IC50 was less than 1000 nM.

**Q.** How did the IC50 turn out when `CC(C)n1ncnc1-c1nc2c(s1)CCOc1cc(C3CN(C(=O)C4(N)CC4)C3)ccc1-2` was run?
**A.** The IC50 was less than 1000 nM.

**Q.** How did the IC50 turn out when `CC(C)n1ncnc1-c1nc2c(s1)CCOc1ccc(C3CN(CC(N)=O)C3)cc1-2` was run?
**A.** Its IC50 is less than 1000 nM.

**Q.** `O=C1CN(c2ccc3c(n2)-c2sc(-c4ncnn4-c4ccc(F)cc4F)cc2CCO3)CCN1` was tested. Which IC50 did it give?
**A.** Its IC50 is less than 1000 nM.

**Q.** With `CC(C)(O)Cn1cc(-c2ccc3c(c2)OCCc2sc(-c4ncnn4C4CCN(CCO)CC4)nc2-3)cn1` as the compound, how does the IC50 read?
**A.** Its IC50 is less than 1000 nM.

**Q.** How did the IC50 turn out when `CNC1CCN(C(=O)c2nc3c(s2)CCOc2cc(-c4cn[nH]c4)ccc2-3)C1` (stereo unspecified) was run?
**A.** Its IC50 is less than 1000 nM.

**Q.** How did the IC50 turn out when `COc1cc(C)c(-c2ccc3c(n2)-c2sc(-c4ncnn4-c4ccc(F)cc4F)cc2CCO3)cn1` was run?
**A.** The IC50 was less than 1000 nM.

**Q.** For `Cc1c[nH]c(=O)c(-c2ccc3c(c2)-c2nc(-c4ncnn4C(C)C)sc2CCO3)c1`, which IC50 is on record?
**A.** The IC50 was less than 1000 nM.

**Q.** With `CO[C@@H]1CCCN(C(=O)c2nc3c(s2)CCOc2cc(-c4cn[nH]c4)ccc2-3)C1` as the compound, how does the IC50 read?
**A.** The IC50 was less than 1000 nM.

**Q.** With `CC(C)n1ncnc1-c1nc2c(s1)CCOc1ccc(C3CN(Cc4ccccc4Cl)C3)cc1-2` as the compound, how does the IC50 read?
**A.** The IC50 was less than 1000 nM.

**Q.** How did the IC50 turn out when `COc1ncccc1-c1ccc2c(c1)-c1nc(-c3ncnn3C(C)C)sc1CCO2` was run?
**A.** The IC50 was less than 1000 nM.

**Q.** With `Nc1ccc2c(n1)-c1sc(-c3ncnn3-c3ccc(F)cc3F)cc1CCO2` as the compound, how does the IC50 read?
**A.** The IC50 was less than 1000 nM.

**Q.** `COCCN(C)C(=O)c1nc2c(s1)CCOc1cc(-c3cn[nH]c3)ccc1-2` was tested. Which IC50 did it give?
**A.** Its IC50 is less than 1000 nM.

**Q.** For `Nc1ccc(-c2ccc3c(n2)-c2sc(-c4ncnn4-c4ccc(F)cc4F)cc2CCO3)cn1`, which IC50 is on record?
**A.** Its IC50 is less than 1000 nM.

**Q.** For `CS(=O)(=O)CCNc1ccc(-c2ccc3c(n2)-c2sc(-c4ncnn4-c4ccc(F)cc4F)cc2CCO3)cn1`, which IC50 is on record?
**A.** The IC50 was less than 1000 nM.

**Q.** For `NC(=O)c1cnc2c(c1)OCCc1cc(-c3ccc[nH]c3=O)sc1-2`, which IC50 is on record?
**A.** The IC50 was less than 1000 nM.

**Q.** With `Cc1nc(N)ncc1-c1ccc2c(c1)-c1nc(C(=O)N(CCO)C(C)C)sc1CCO2` as the compound, how does the IC50 read?
**A.** The IC50 was less than 1000 nM.

**Q.** `Cc1nc(-c2nc3c(s2)CCOc2cc(C4CN(CCO)C4)ccc2-3)n(C(C)C)n1` was tested. Which IC50 did it give?
**A.** The IC50 was less than 1000 nM.

**Q.** With `CC(C)n1ncnc1-c1nc2c(s1)CCOc1cc(C3CN(C(=O)[C@H](C)O)C3)ccc1-2` as the compound, how does the IC50 read?
**A.** Its IC50 is less than 1000 nM.

**Q.** With `FC(F)(F)Cn1ncnc1-c1nc2c(s1)CCOc1cc(-c3cnn(CCNC4COC4)c3)ccc1-2` as the compound, how does the IC50 read?
**A.** The IC50 was less than 1000 nM.

**Q.** How did the IC50 turn out when `CC(C)(C)n1nc(N)nc1-c1nc2c(s1)CCOc1cc(-c3cn[nH]c3)ccc1-2` was run?
**A.** Its IC50 is less than 1000 nM.

**Q.** For `CC(C)n1ncnc1-c1nc2c(s1)CCOc1ccc(C3CN(C(=O)OC(C)(C)C)C3)cc1-2`, which IC50 is on record?
**A.** The IC50 was less than 1000 nM.

**Q.** Which IC50 does the source give for `CC(C)C(=O)N1CCN(C(=O)c2nc3c(s2)CCOc2cc(-c4cn[nH]c4)ccc2-3)CC1` here?
**A.** The IC50 was less than 1000 nM.

**Q.** With `CNC(=O)c1ccc2c(c1)OCCc1cc(C(=O)N(C)c3cc(C(=O)N4CC(O)C4)ccc3Cl)sc1-2` as the compound, how does the IC50 read?
**A.** Its IC50 is less than 1000 nM.
